Data set [1] in a line: Metabolic stability in rat liver microsomes assessed as half life measured for 60 mins by LC-MS/MS analysis. The class given is ADME, Microsome. A general note: Liver microsomes are vesicles of endoplasmic reticulum, rich in cytochrome P450 enzymes.
A short description of data set [2]: AUC(0 to t) in Beagle dog at 3.6 mg/kg, po measured for 24 hrs by LC-MS/MS analysis. The data set is classed as ADME, organism-based, Canis lupus familiaris. As to conditions: in vivo.
A short description of data set [3]: Microsomal metabolic stability in Beagle dog liver microsomes assessed as half life […] by LC-MS/MS analysis. The data set is classed as ADME, Canis lupus familiaris, Microsome.
Data set [4] in a line: Oral bioavailability in Beagle dog at 3.6 mg/kgm measured for 24 hrs by LC-MS/MS analysis. The class given is ADME, organism-based, Canis lupus familiaris. To be noted: in vivo, dose 3.6 mg/kg.
Data set [5] is described as follows: Oral bioavailability in ICR mouse at 5 mg/kg. The class given is ADME, organism-based. As to conditions: in vivo.
A short description of data set [6]: AUC(0 to t) in ICR mouse plasma at 5 mg/kg, po measured for 60 mins by LC-MS/MS analysis. The class given is ADME, organism-based.
A short description of data set [7]: AUC(0 to t) in Sprague-Dawley rat at 300 mg/kg, po measured up to 24 hrs by LC-MS/MS analysis. The data set is classed as ADME, organism-based. To be noted: in vivo.
Data set [8] is described as follows: Oral bioavailability in human at 2 microg/kg measured for 60 mins by LC-MS/MS analysis. To be noted: in vivo, 0.002 mg/kg.
Data set [9] in a line: Metabolic stability in human liver microsome assessed as half life. As to conditions: liver microsomes.
A short description of data set [10]: AUC(0 to t) in ICR mouse plasma at 2 microg/kg, po measured for 60 mins by LC-MS/MS analysis. To be noted: 0.002 mg/kg.
A short description of data set [11]: Acute toxicity in po dosed ICR mouse assessed as lethal dose. The data set is classed as organism-based. To be noted: in vivo.
The nature of data set [12]: Toxicity in rat assessed as lethal dose. To be noted: in vivo.
Data set [13] is described as follows: Oral bioavailability in Sprague-Dawley rat at 20 mg/kg by LC-MS/MS analysis. The data set is classed as ADME, organism-based. As to conditions: in vivo.
Data set [14] in a line: Oral bioavailability in Sprague-Dawley rat at 5 mg/kg by LC-MS/MA analysis. The data set is classed as ADME, organism-based. To be noted: in vivo.
A short description of data set [15]: AUC(0 to t) in Sprague-Dawley rat at 20 mg/kg, po measured up to 24 hrs by LC-MS/MS analysis. As to conditions: in vivo. The data set is classed as ADME, organism-based.
Data set [16] is described as follows: AUC(0 to t) in Sprague-Dawley rat at 5 mg/kg, po measured up to 24 hrs by LC-MS/MS analysis. The data set is classed as ADME, organism-based. As to conditions: in vivo.
The nature of data set [17]: Toxicity in ip dosed rat assessed as lethal dose. The data set is classed as organism-based. As to conditions: in vivo.
A short description of data set [18]: Toxicity in iv dosed rat assessed as lethal dose. As to conditions: in vivo. The data set is classed as organism-based.

Turning to `Cc1cnc(-c2ccccc2C(C)C)nc1NCc1ccc(-n2ccnn2)cc1`, the half-life (usually the time needed for the level to fall by half in the phase considered) in [1] turned out to be 0.2 h.

`C[C@@H]1C(=O)O[C@H]2[C@@H](O)C34[C@H]5C[C@@H](C(C)(C)C)C36[C@@H](OC(=O)[C@@H]6O)O[C@@]4(C(=O)O5)[C@@]12O` (stereo partly drawn): in data set [2], the AUC(0-t) (commonly exposure summed from dosing to a finite time, without extrapolation to infinity) at 24 h was 356 µg·h/mL. The half-life in data set [3] is 1 h. Further, the bioavailability (as a rule, the share of a dose that reaches the circulation, judged against a reference dose that is usually intravenous) in data set [4] is 17%.

In [5], `O=C(Nc1c2c(cc3c1CCC3)CCC2)NS(=O)(=O)c1ccc(OCCOCCOCCOCCN2C(=O)/C(=C\c3cc(Br)c(O)c(Br)c3)c3cc(I)ccc32)cc1` returned a bioavailability of 19%. This molecule also gave an exposure AUC(0-t) at 1 h in [6] of 551 µg·h/mL.

With `O=C1c2cccc(O)c2C(=O)c2c(O)cc(CO)cc21` [ALOE-EMODIN], the AUC(0-t) at 24 h in data set [7] was 42.8 µg·h/mL.

In data set [8], `Cc1cccc([C@H](C)c2cnc[nH]2)c1C` [DEXMEDETOMIDINE] had a bioavailability at 1 h of 15.6%. In addition, the half-life in data set [9] is 2 h. In data set [10], this molecule displayed an exposure AUC(0-t) at 1 h of 0.45 µg·h/mL.

`COc1cc(/C=C/C(=O)O)ccc1O` [FERULATE]: in [11], the 50% lethal dose (LD50) – broadly, the dose expected to kill half of the subjects tested – turned out to be 3200 mg/kg.

Turning to `O=c1c(O)c(-c2ccc(O)cc2)oc2cc(O)cc(O)c12` [KAEMPFEROL], in data set [12], the LD50 worked out at 3810 mg/kg. Also, the bioavailability in data set [13] is 2%; in data set [14], 7%. The same molecule displayed an AUC(0-t) at 24 h in data set [15] of 234 µg·h/mL.

In [16], `O=c1c(-c2ccc(O)cc2)coc2c([C@@H]3O[C@H](CO)[C@@H](O)[C@H](O)[C@H]3O)c(O)ccc12` [PUERARIN] came in with an exposure AUC(0-t) at 24 h of 109 µg·h/mL. The median lethal dose (LD50) in [17] amounted to 1410 mg/kg; in [18], 634 mg/kg.
